Results on 1 compound are retold here after paper PMC8703466, “Unravelling the Interaction of Piperlongumine with the Nucleotide-Binding Domain of HSP70: A Spectroscopic and In Silico Study” (Pharmaceuticals, 2021).

SMILES strings stand for the structures.

In the test the target is T1, nucleotide-binding domain of heat shock protein 70 (NBD/HSP70) (Homo sapiens, UniProt P0DMV8).
T1 construct: gene HSPA1A
Briefly: intrinsic Trp90 fluorescence quenching titration (steady-state, IDF/Hill fit), supported by time-resolved fluorescence; CD. Particulars: read-out: intrinsic Trp90 fluorescence quenching titration (steady-state, IDF/Hill fit), s.

T1 sequence (P0DMV8 1-382 limits assumed): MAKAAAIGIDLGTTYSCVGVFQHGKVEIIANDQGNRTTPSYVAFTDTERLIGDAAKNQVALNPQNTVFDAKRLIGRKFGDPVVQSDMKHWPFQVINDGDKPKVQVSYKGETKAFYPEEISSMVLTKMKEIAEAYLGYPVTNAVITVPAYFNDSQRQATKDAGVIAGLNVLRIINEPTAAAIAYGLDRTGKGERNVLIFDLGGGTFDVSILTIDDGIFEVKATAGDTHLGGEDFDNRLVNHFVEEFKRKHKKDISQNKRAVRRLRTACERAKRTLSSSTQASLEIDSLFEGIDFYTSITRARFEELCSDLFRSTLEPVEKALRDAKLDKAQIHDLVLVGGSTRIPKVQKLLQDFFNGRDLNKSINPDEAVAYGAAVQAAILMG

For `COc1cc(/C=C/C(=O)N2CCC=CC2=O)cc(OC)c1OC` [PPL, Piperlongumine], the Kd was determined as 15.9 µM.
